Experimental data from PubChem BioAssay (NCI).
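Values below derive from 48-hour exposures of cells grown in 96-well plates, with endpoints linearly interpolated between the two concentrations bracketing the appropriate inhibition level. TGI: total growth inhibition.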

Legend:
Test in all cases: NCI tumour cell line growth inhibition, 48 h
[1] = test system: A498 renal
[2] = test system: A549 NSCLC
[3] = test system: CAKI-1 renal
[4] = test system: CCRF-CEM leukemia
[5] = test system: COLO 205 colon
[6] = test system: DLD-1 colon
[7] = test system: DMS 114 small cell lung
[8] = test system: DMS 273 small cell lung
[9] = test system: EKVX NSCLC
[10] = test system: HCC-2998 colon
[11] = test system: HCT-116 colon
[12] = test system: HCT-15 colon
[13] = test system: HL-60(TB) leukemia
[14] = test system: HOP-18 NSCLC
[15] = test system: HOP-62 NSCLC
[16] = test system: HOP-92 NSCLC
[17] = test system: HT29 colon
[18] = test system: IGROV1 ovarian
[19] = test system: K-562 leukemia
[20] = test system: KM12 colon
[21] = test system: KM20L2 colon
[22] = test system: LOX IMVI melanoma
[23] = test system: M19-MEL melanoma
[24] = test system: MALME-3M melanoma
[25] = test system: MCF7 breast
[26] = test system: MOLT-4 leukemia
[27] = test system: NCI-H23 lung
[28] = test system: NCI-H460 lung
[29] = test system: NCI-H522 lung
[30] = test system: NCI/ADR-RES ovarian
[31] = test system: OVCAR-3 ovarian
[32] = test system: OVCAR-4 ovarian
[33] = test system: OVCAR-5 ovarian
[34] = test system: OVCAR-8 ovarian
[35] = test system: P388 leukemia
[36] = test system: P388/ADR leukemia
[37] = test system: RPMI-8226 leukemia
[38] = test system: RXF 393 renal
[39] = test system: SF-268 CNS
[40] = test system: SF-295 CNS
[41] = test system: SF-539 CNS
[42] = test system: SK-MEL-2 melanoma
[43] = test system: SK-MEL-28 melanoma
[44] = test system: SK-MEL-5 melanoma
[45] = test system: SK-OV-3 ovarian
[46] = test system: SN12C renal
[47] = test system: SN12K1 renal
[48] = test system: SNB-19 CNS
[49] = test system: SNB-75 CNS
[50] = test system: SNB-78 CNS
[51] = test system: SW-620 colon
[52] = test system: U251 CNS
[53] = test system: UACC-257 melanoma
[54] = test system: UACC-62 melanoma
[55] = test system: UO-31 renal
[56] = test system: XF 498 CNS

Measured: TGI

CN(C)C(=O)N(CCCl)N=O
> 100 µM: all assays above
